The values below come from patent US10053451B2, “Heterocyclic estrogen receptor modulators and uses thereof” (priority 2015, dated 2018).

For this assay, the target named is T1, estrogen receptor alpha (ESR1) (Homo sapiens, UniProt P03372).
T1 construct: MCF7 cells were trypsinized and washed twice; endogenous in cells; host or cells: MCF7 breast cancer cells
T1 sequence (P03372 1-595): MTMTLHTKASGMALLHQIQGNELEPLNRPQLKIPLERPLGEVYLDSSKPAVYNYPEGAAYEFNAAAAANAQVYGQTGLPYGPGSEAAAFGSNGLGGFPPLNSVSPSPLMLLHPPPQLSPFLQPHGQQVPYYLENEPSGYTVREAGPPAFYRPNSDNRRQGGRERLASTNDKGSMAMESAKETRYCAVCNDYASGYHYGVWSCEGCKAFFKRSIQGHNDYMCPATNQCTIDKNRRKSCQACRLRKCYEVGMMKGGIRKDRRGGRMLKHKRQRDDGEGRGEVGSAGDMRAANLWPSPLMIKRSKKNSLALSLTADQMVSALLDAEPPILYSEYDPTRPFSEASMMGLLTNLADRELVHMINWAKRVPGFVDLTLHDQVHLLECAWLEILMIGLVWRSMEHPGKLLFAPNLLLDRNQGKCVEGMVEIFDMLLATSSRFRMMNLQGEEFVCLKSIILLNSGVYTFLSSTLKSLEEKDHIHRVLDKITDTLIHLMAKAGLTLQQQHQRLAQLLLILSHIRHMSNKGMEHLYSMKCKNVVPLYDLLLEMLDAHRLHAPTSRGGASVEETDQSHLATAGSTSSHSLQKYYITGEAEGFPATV
The experiment in a line: Breast Cancer Cell ERa High Content Fluorescence Imaging Assay (ER-alpha MCF7 Assay). Conditions: MCF7 cells, 4 hours; plateau of maximal effect; DMSO = 0%, 5 nM Fulvestrant = 100% change in ESR1. It is filed as cell-based. As for the experimental part:
Cell plates were incubated at 37° C., for 4 hours. Fixation and permeabilization were carried out using a Biotek EL406 plate washer and dispenser as follows. […] Samples were incubated 30 minutes. Well contents was aspirated and 50 uL/well of Phosphate Buffered Saline (PBS) containing 0.5% w/v bovine serum albumen, 0.5% v/v Triton X-100 (Antibody Dilution Buffer) was added to each well. Samples were incubated for 30 minutes. Well contents were aspirated and washed 3 times with 100 uL/well of PBS. Immunofluorescence staining of estrogen receptor alpha (ESR1) was carried out using a Biotek EL406 plate washer and dispenser as follows. […] Samples were incubated for 2 hours at room temperature. Samples were washed 4 times with 100 uL/well of PBS. […] Samples were incubated for 2 hours at room temperature. Samples were washed 3 times with 100 uL/well of PBS using a Biotek EL406. Quantitative fluorescence imaging of ESR1 was carried out using a Cellomics Arrayscan V (Thermo). […] Channel 1 (DNA stain) was used to define the nuclear region (Circ). […] The “Robust Fit” method was used to define the inflexion point of curve (EC50) and the plateau of the maximal effect (Sinf).
For the molecule `CC(C)=CC1=C(C)c2cc(O)ccc2OC1c1ccc(OCCN2CC(CF)C2)cc1` (centres unmarked) [Example 16, 2-[4-[2-[3-(Fluoromethyl)azetidin-1-yl]ethoxy]phenyl]-4-methyl-3-(2-methylprop-1-enyl)-2H-chromen-6-ol], the “ER-alpha MCF7 Sinf (%)” value is 93.9%. As for `CC1=C(CC(C)C)C(c2ccc(OCCN3CC(CF)C3)cc2)Oc2ccc(O)cc21` (centres unmarked) [Example 17, 2-(4-(2-(3-(Fluoromethyl)azetidin-1-yl)ethoxy)phenyl)-3-isobutyl-4-methyl-2H-chromen-6-ol], the “ER-alpha MCF7 Sinf (%)” value was 93.9%.

Consider `CC1=C(C2=CCNC2)C(c2ccc(OCCN3CC(CF)C3)cc2)Oc2ccc(O)cc21` (centres unmarked) [Example 18, 3-(2,5-dihydro-1H-pyrrol-3-yl)-2-(4-(2-(3-(fluoromethyl)azetidin-1-yl)ethoxy)phenyl)-4-methyl-2H-chromen-6-ol], for which the “ER-alpha MCF7 Sinf (%)” value came out at 90.0%. The same measure for `CC(=O)N1CCC(C2=C(C)c3cc(O)ccc3OC2c2ccc(OCCN3CC(CF)C3)cc2)C1` (centres unmarked) [Example 19, 1-(3-(2-(4-(2-(3-(Fluoromethyl)azetidin-1-yl)ethoxy)phenyl)-6-hydroxy-4-methyl-2H-chromen-3-yl)pyrrolidin-1-yl)ethanone]: 80%. With `CC(=O)N1CC=C(C2=C(C)c3cc(O)ccc3OC2c2ccc(OCCN3CC(CF)C3)cc2)C1` (centres unmarked) [Example 20, 1-(3-(2-(4-(2-(3-(Fluoromethyl)azetidin-1-yl)ethoxy)phenyl)-6-hydroxy-4-methyl-2H-chromen-3-yl)-2,5-dihydro-1H-pyrrol-1-yl)ethanone], the “ER-alpha MCF7 Sinf (%)” value came out at 93.7%. With `CC1=C(C2=CCC(O)CC2)C(c2ccc(OCCN3CC(CF)C3)cc2)Oc2ccc(O)cc21` (centres unmarked) [Example 21, 2-(4-(2-(3-(Fluoromethyl)azetidin-1-yl)ethoxy)phenyl)-3-(4-hydroxycyclohex-1-en-1-yl)-4-methyl-2H-chromen-6-ol] the figure was 98.7%; with `CC1=C(c2ncc(C#N)cc2C)C(c2ccc(OCCN3CC(CF)C3)cc2)Oc2ccc(O)cc21` (centres unmarked) [Example 22, 2-{4-[2-(3-Fluoromethyl-azetidin-1-yl)-ethoxy]-phenyl}-4-methyl-3-(3-methyl-5-cyano-pyridin-2-yl)-2H-chromen-6-ol], 97.4%; with `CC1=C(C2CCOCC2)C(c2ccc(OCCN3CC(CF)C3)cc2)Oc2ccc(O)cc21` (centres unmarked) [Example 24, 2-(4-(2-(3-(fluoromethyl)azetidin-1-yl)ethoxy)phenyl)-4-methyl-3-(tetrahydro-2H-pyran-4-yl)-2H-chromen-6-ol], 97.7%. In the case of `CC1=C(C2=CCC(F)(F)CC2)C(c2ccc(OCCN3CC(CF)C3)cc2)Oc2ccc(O)cc21` (centres unmarked) [Example 26, 3-(4,4-difluorocyclohex-1-en-1-yl)-2-(4-(2-(3-(fluoromethyl)azetidin-1-yl)ethoxy)phenyl)-4-methyl-2H-chromen-6-ol], the “ER-alpha MCF7 Sinf (%)” value amounted to 97.1%. The same measure for `CC1=C(C2CCOC2)C(c2ccc(OCCN3CC(CF)C3)cc2)Oc2ccc(O)cc21` (centres unmarked) [Example 29, 2-(4-(2-(3-(fluoromethyl)azetidin-1-yl)ethoxy)phenyl)-4-methyl-3-(tetrahydrofuran-3-yl)-2H-chromen-6-ol]: 98.9%; for `CC1=C(C2=CCOC2)C(c2ccc(OCCN3CC(CF)C3)cc2)Oc2ccc(O)cc21` (centres unmarked) [Example 30, 3-(2,5-dihydrofuran-3-yl)-2-(4-(2-(3-(fluoromethyl)azetidin-1-yl)ethoxy)phenyl)-4-methyl-2H-chromen-6-ol]: 97.9%; for `CNC(=O)N1CCC(C2=C(C)c3cc(O)ccc3OC2c2ccc(OCCN3CC(CF)C3)cc2)CC1` (centres unmarked) [Example 31, 4-(2-(4-(2-(3-(fluoromethyl)azetidin-1-yl)ethoxy)phenyl)-6-hydroxy-4-methyl-2H-chromen-3-yl)-N-methylpiperidine-1-carboxamide]: 85.9%. With `CC1=C(c2ccncc2C)C(c2ccc(OCCN3CC(CF)C3)cc2)Oc2ccc(O)cc21` (centres unmarked) [Example 32, 2-{4-[2-(3-Fluoromethyl-azetidin-1-yl)-ethoxy]-phenyl}-4-methyl-3-(3-methyl-pyridin-4-yl)-2H-chromen-6-ol] the figure was 99.4%.

Take `CC1=C(c2ncccc2C)C(c2ccc(OCCN3CC(CF)C3)cc2)Oc2ccc(O)cc21` (centres unmarked) [Example 33, 2-{4-[2-(3-Fluoromethyl-azetidin-1-yl)-ethoxy]-phenyl}-4-methyl-3-(3-methyl-pyridin-2-yl)-2H-chromen-6-ol]: the “ER-alpha MCF7 Sinf (%)” value is on record as 96.4%. The same measure for `CC1=C(c2cnccc2C)C(c2ccc(OCCN3CC(CF)C3)cc2)Oc2ccc(O)cc21` (centres unmarked) [Example 34, 2-{4-[2-(3-Fluoromethyl-azetidin-1-yl)-ethoxy]-phenyl}-4-methyl-3-(4-methyl-pyridin-3-yl)-2H-chromen-6-ol]: 97.5%; for `CC1=C(c2cccnc2C)C(c2ccc(OCCN3CC(CF)C3)cc2)Oc2ccc(O)cc21` (centres unmarked) [Example 35, 2-{4-[2-(3-Fluoromethyl-azetidin-1-yl)-ethoxy]-phenyl}-4-methyl-3-(2-methyl-pyridin-3-yl)-2H-chromen-6-ol]: 98.5%; for `CC1=C(c2cncc(C)c2)C(c2ccc(OCCN3CC(CF)C3)cc2)Oc2ccc(O)cc21` (centres unmarked) [Example 37, 2-{4-[2-(3-Fluoromethyl-azetidin-1-yl)-ethoxy]-phenyl}-4-methyl-3-(5-methyl-pyridin-3-yl)-2H-chromen-6-ol]: 99.2%. In the case of `CC1=C(c2cncnc2)C(c2ccc(OCCN3CC(CF)C3)cc2)Oc2ccc(O)cc21` (centres unmarked) [Example 38, 2-{4-[2-(3-Fluoromethyl-azetidin-1-yl)-ethoxy]-phenyl}-4-methyl-3-pyrimidin-5-yl-2H-chromen-6-ol], the “ER-alpha MCF7 Sinf (%)” value is reported as 90.3%. For the molecule `CC1=C(c2cnc(N)nc2)C(c2ccc(OCCN3CC(CF)C3)cc2)Oc2ccc(O)cc21` (centres unmarked) [Example 39, 3-(2-Amino-pyrimidin-5-yl)-2-{4-[2-(3-fluoromethyl-azetidin-1-yl)-ethoxy]-phenyl}-4-methyl-2H-chromen-6-ol], the “ER-alpha MCF7 Sinf (%)” value amounted to 95.4%.

In the case of `CC1=C(c2cncc(S(C)(=O)=O)c2)C(c2ccc(OCCN3CC(CF)C3)cc2)Oc2ccc(O)cc21` (centres unmarked) [Example 41, 2-{4-[2-(3-Fluoromethyl-azetidin-1-yl)-ethoxy]-phenyl}-3-(5-methanesulfonyl-pyridin-3-yl)-4-methyl-2H-chromen-6-ol], the “ER-alpha MCF7 Sinf (%)” value was 98.9%.

Turning to `CC1=C(c2cnn(C)c2)C(c2ccc(OCCN3CC(CF)C3)cc2)Oc2ccc(O)cc21` (centres unmarked) [Example 42, 2-{4-[2-(3-Fluoromethyl-azetidin-1-yl)-ethoxy]-phenyl}-4-methyl-3-(1-methyl-1H-pyrazol-4-yl)-2H-chromen-6-ol], the “ER-alpha MCF7 Sinf (%)” value stood at 95.2%.

With `CC1=C(c2cncc(F)c2)C(c2ccc(OCCN3CC(CF)C3)cc2)Oc2ccc(O)cc21` (centres unmarked) [Example 43, 2-{4-[2-(3-Fluoromethyl-azetidin-1-yl)-ethoxy]-phenyl}-3-(5-fluoro-pyridin-3-yl)-4-methyl-2H-chromen-6-ol], the “ER-alpha MCF7 Sinf (%)” value is 97.3%. The same measure for `CC1=C(c2cncc(C#N)c2)C(c2ccc(OCCN3CC(CF)C3)cc2)Oc2ccc(O)cc21` (centres unmarked) [Example 44, 5-(2-{4-[2-(3-Fluoromethyl-azetidin-1-yl)-ethoxy]-phenyl}-6-hydroxy-4-methyl-2H-chromen-3-yl)-nicotinonitrile]: 91.8%. For `CC1=C(C2=CC(=O)CC2)C(c2ccc(OCCN3CC(CF)C3)cc2)Oc2ccc(O)cc21` (centres unmarked) [Example 45, 3-[2-[4-[2-[3-(fluoromethyl)azetidin-1-yl]ethoxy]phenyl]-6-hydroxy-4-methyl-2H-chromen-3-yl]cyclopent-2-en-1-one], the “ER-alpha MCF7 Sinf (%)” value came to 96.6%.

For the molecule `CC1=C(C2CCC(O)C2)C(c2ccc(OCCN3CC(CF)C3)cc2)Oc2ccc(O)cc21` (centres unmarked) [Example 46, 2-[4-[2-[3-(fluoromethyl)azetidin-1-yl]ethoxy]phenyl]-3-(3-hydroxycyclopentyl)-4-methyl-2H-chromen-6-ol], the “ER-alpha MCF7 Sinf (%)” value was 98.3%. With `CC1=C(C2=CC(O)CC2)C(c2ccc(OCCN3CC(CF)C3)cc2)Oc2ccc(O)cc21` (centres unmarked) [Example 47, 2-[4-[2-[3-(fluoromethyl)azetidin-1-yl]ethoxy]phenyl]-3-(3-hydroxycyclopenten-1-yl)-4-methyl-2H-chromen-6-ol] the figure was 95.4%.
